Measurements from patent publication US8436049B2, “Uses of pentamidine and related compounds” (State of Oregon Acting By and Through the State Board of …, priority 2008, dated 2013).
Where “and” joins values, the source holds several entries; their conditions need not be identical. Equal entries are not always repeated.

Columns and labels:
MBNL-CUG RNA complex = target: T1, MBNL-CUG RNA complex (Homo sapiens, UniProt Q9NR56); experiment: Gel shift assay, disruption of MBNL binding to short CUG repeat RNA
T1 construct: Both the full length MBNL and MBNL (1-260) constructs were cloned using BamHI and NotI restriction sites; GST (N, cleaved yes); made in house; host or cells: E. coli BL21-Star
T1 sequence (Q9NR56 1-382 isoform Q9NR56-5): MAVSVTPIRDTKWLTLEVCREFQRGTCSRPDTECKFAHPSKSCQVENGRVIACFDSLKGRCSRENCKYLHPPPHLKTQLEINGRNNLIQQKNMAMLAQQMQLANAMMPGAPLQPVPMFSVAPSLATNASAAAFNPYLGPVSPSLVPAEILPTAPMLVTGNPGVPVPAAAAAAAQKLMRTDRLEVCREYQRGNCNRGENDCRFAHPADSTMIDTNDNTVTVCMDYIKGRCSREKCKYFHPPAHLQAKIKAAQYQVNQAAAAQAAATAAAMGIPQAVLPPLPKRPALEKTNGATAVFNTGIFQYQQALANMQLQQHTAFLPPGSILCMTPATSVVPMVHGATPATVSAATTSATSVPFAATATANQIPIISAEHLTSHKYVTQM
Protocol: MBNL1 (MBNL) was PCR amplified and was cloned into GST fusion vector pGEX-6P-1 (GE Healthcare, Piscataway, N.J.), using DNA encoding a MBNL isoform with amino acids 1-382). Both the full length MBNL and MBNL (1-260) constructs were cloned using BamHI and NotI restriction sites. Using BL21-Star expression cells (Invitrogen, Carlsbad, Calif.), protein expression was induced with 0.25 mM IPTG at an OD600 of about 0.5-1, for 3-4 hours at 37° C. Cells were lysed in 30 ml of buffer (500 mM NaCl, 25 mM Tris pH 7.5, 10 mM β-mercaptoethanol (BME) and 5% glycerol) using 1 mg/ml of lysozyme, followed by sonication (3×30 seconds). Cell extract was centrifuged for 15 minutes at 17,000 rpm, and lysate which contained GST-MBNL was collected. GST-MBNL was bound to GST affinity beads for 30 minutes at 4° C. […] The protein was then run over an anion exchange (Q) column. […] MBNL was collected in the column flow through, concentrated and dialyzed into storage buffer (30% glycerol, 300 mM NaCl, 20 mM Tris pH 7.5, 5 mM BME) and stored at −80° C. Aliquots were removed from −80° C. and temporarily placed at −20° C. until used for an experiment.
All RNA substrates that were radiolabeled were ordered from IDT DNA (Coralville, Iowa), and 5′ end-labeled using [γ-^32P]ATP. All radiolabeled RNAs were purified on 8% polyacrylamide denaturing gels.
Solutions for the protein-RNA binding experiments contained 125 mM NaCl, 5 mM MgCl2, 20 mM Tris (pH 7.5), 7.5% glycerol, 2 mg/ml bovine serum albumin, and 0.1 mg/ml heparin. Prior to incubation, RNA substrates were annealed by incubation at 95° C. for 2 minutes and then placed directly on ice for 20 minutes in 66 mM NaCl, 6.7 mM MgCl2, and 27 mM Tris (pH 7.5). Protein was then added to the RNA in the presence or absence of the small molecule. The binding reaction was carried out in a 10 μL volume and was incubated for 10 minutes at room temperature before 2-4 μL were loaded on a pre-chilled 4° C. gel. RNA and RNA-protein complexes were separated on 3% acrylamide (37.5:1), 0.3% agarose (low melting point), 0.5× Tris-Borate (TB) gels, run for approximately 2-3 hours at 4° C. at 25-50 volts. Gels were dried and autoradiographed. For the neomycin B and CUG8 gel shift, an 8% acrylamide (29:1), 0.5×TB gel was used and run for 3 hours at 4° C. at 175 volts. All small molecules were dissolved in either water or ethanol, according to the manufacturer's guidance for solubility.
For binding curves, gels were quantified using ImageQuant® software (Molecular Dynamics, Piscataway, N.J.). The percent RNA bound was determined by taking the ratio of RNA-protein complex to total RNA, per lane. Any counts in the well were discarded as it was unapparent if the RNA was bound by protein, small molecule or was in an aggregate. Binding curves were graphed using KaleidaGraph software (Synergy Software, Reading, Pa.). For the neomycin B and CUG8 gel shift, the apparent Kd was determined using Equation 1, where Y=fraction bound, m0=small molecule concentration, m1=total RNA concentration, and m2=Kd.
For determining the EC50, Equation 3 was used, where m0=small molecule concentration, m1=EC50, m2=Hill coefficient, and m3=fraction MBNL bound without small molecule present. Y=m3/[1+(m0/m1)^m2] Equation 3 Results

[1] = target: CUG repeats (fluorescein labeled RNA); experiment: Fluorescence anisotropy, direct binding to fluorescein labeled CUG repeats; details: absence of MBNL, 25° C.
Protocol: Fluorescent RNAs were ordered from Dharmacon RNA Technologies (Lafayette, Colo.), and deprotected according to the manufacturer's protocol. RNA was snap annealed in 175 mM NaCl, 20 mM Tris pH 7.5, 5 mM MgCl2. All fluorescence anisotropy experiments were performed in this buffer, with the addition of 0.1 mg/ml of heparin when using protein. Experiments were performed at 25° C. in a 7.5 mm wide Spectrosil® far UV quartz cuvette (Starna Cells, Inc, Atascadero, Calif.), using an L-format FluoroMax®-3 fluorimeter (Horiba Jobin Yvon, Inc., Edison, N.J.). Each anisotropy run was normalized by setting the initial value of the anisotropy of the RNA alone to zero, which converts the data into Δ anisotropy. Curves were graphed using KaleidaGraph (Synergy) software. For curve fitting of titrations and determining apparent Kd values, Equation 1 was used (Example 1). The error bars on the binding curve were obtained by averaging individual titration points from three separate experiments and calculating the standard deviation.
To determine if pentamidine binds to the CUG repeats and not to MBNL, fluorescein labeled CUG repeats (FIG. 3A) were used to monitor the binding of pentamidine directly to the CUG repeats in the absence of MBNL.

N=C(N)c1ccc(OCCCCCOc2ccc(C(=N)N)cc2)cc1 [pentamidine]
Disruption of the MBNL-CUG interaction (MBNL-CUG RNA complex; gel shift screen, increasing amounts of small molecule): disrupt the MBNL-CUG interaction at micromolar concentrations | EC50 (MBNL-CUG RNA complex; gel shift, short CUG repeat RNA (CUG4), read-out: EC50 for disruption of MBNL binding to CUG repeat construct): ~58 µM and 58 µM | Kd [1]: ~19 µM and 19 µM
